Entries after “also recorded” stand apart in the source; their conditions may differ.
Experiments:
Intracellular Adenosine = experiment: In vivo effect on adenosine levels in various rat tissues (HPLC, spectrofluorometric detection)
Method: Folinic acid (50 mg/kg) was administered intraperitoneally once daily for fourteen days. […] Hearts were removed from animals and flash frozen in liquid nitrogen with 10 seconds of death. Liver and lungs were removed en bloc and flash frozen within 30 seconds of death. Brain tissue was subsequently dissected.

HT-29 SF cells [1] = experiment: DHEA effect on cell growth (cell number, Coulter counter) and its reversal by supplements; format: cell-based, human; settings: 12.5-200 μM, 24-72 hours
HT-29 SF cells [2] = experiment: Cell cycle distribution by flow cytometry (propidium iodide) and reversal of the DHEA effect; format: cell-based, human; settings: for cell morphology: HT-29 SF cells exposed to DHEA, data not shown

Nc1nc(=O)c2c([nH]1)NCC(CNc1ccc(C(=O)N[C@@H](CCC(=O)O)C(=O)O)cc1)N2C=O (mixture of isomers) [Folinic Acid (F.A.), Folinic acid]
effect on tissue adenosine levels (in words) (Intracellular Adenosine; rats, daily for two weeks, listed as Folinic acid): increase in adenosine levels for all organs studied
effect on tissue adenosine levels (in words) (Intracellular Adenosine; rats, daily for two weeks, listed as folinic acid): completely abrogated steroid-mediated adenosine depletion

C[C@]12CC[C@H](O)CC1=CC[C@@H]1[C@@H]2CC[C@]2(C)C(=O)CC[C@@H]12 [DHEA, (3β)-3-hydroxyandrost-5-en-17-one]
effect on tissue adenosine levels (in words) (Intracellular Adenosine; rat, in vivo): multi-organ depletion of adenosine
inhibition of growth of HT-29 SF cells (in words) (HT-29 SF cells [1]): time- and dose-dependent inhibition of growth
cell cycle distribution (HT-29 SF cells [2]; 200 μM DHEA, after 24 hours): increase in the percentage of cells in G1 and a decreased proportion of cells in S phase
effect on cell cycle (G1, S phase) with time of exposure (in words) (HT-29 SF cells [2]; 25-200 μM DHEA, 24-72 hours): G1 block in HT-29 SF cells in a time-and dose-dependent manner; also recorded: progressively reduced the proportion of cells in S phase
cell morphology (HT-29 SF cells [2]): acquiring a rounded shape

C[C@@](O)(CCO)CC(=O)O [MVA, mevalonic acid, reference compound]
prevention of DHEA-induced S phase depletion (HT-29 SF cells [2]; 25 FM DHEA, 72 hours): not after 72 hours
cell morphology (HT-29 SF cells [2]): prevented only by the addition of MVA

C[C@]12CCC(=O)C=C1CC[C@@H]1[C@@H]2CC[C@@]2(C)[C@H]1CC[C@]2(C)O [Methyltestosterone, methyltestosterone]
effect on tissue adenosine levels (in words) (Intracellular Adenosine; rats, daily for two weeks): multi-organ depletion of adenosine

Reference: US7456161B2 (Epigenesis Pharmaceuticals, LLC, priority 2001, dated 2008)
